Results reported in patent publication US6258845A (priority 1999, dated 2001).
“And” between values parts separate entries of the source, which are not always exact repeats. Equal values may be shown once. “Also recorded” adds a separate entry of the source.

How the values were obtained:
[1] = in vivo; cited from earlier work
[2] = system: AOM-treated rat model of colon carcinogenesis; details: in vivo; cited from earlier work
[3] = system: colon mucosal prostaglandins; details: cited from earlier work
[4] = system: colon cancer incidence; details: cited from earlier work
[5] = system: COX (cyclooxygenase); details: cited from earlier work
[6] = system: carcinogenesis in rodent/animal models; details: in vivo; cited from earlier work
[7] = system: prostaglandin E2 (PGE2) levels in flat mucosa; experiment: Ibuprofen one month trial, PGE2 levels in flat mucosa; details: 300 mg/day
[8] = system: tumors harboring Ki-ras mutations in AOM-treated rats; details: cited from earlier work
[9] = cited from earlier work
[10] = system: Caco-2 parental cells, Ki-ras clone #60 and Ki-ras clone #66; experiment: Viable cell number (trypan blue dye exclusion), growth of Caco-2 parental and Ki-ras transfected cells; format: cell-based, human
[11] = system: Caco-2 parental cells; experiment: Induction of apoptosis (light microscopy) in Caco-2 parental cells; format: cell-based, human; details: 120 μM sulindac sulfide; Caco-2 parental
Method: (§1) FIG. 3. […] Apoptosis was determined by light microscopy.
(§2) FIG. 8. […] Cells were grown over a period of 6 days. Cells were harvested at various days (0, 2, 4 and 6 days), spun onto slides and stained. Apoptosis was determined by light microscopy. Percentage of apoptotic cells was calculated as the number of apoptotic cells out of the total cells counted times 100. At least 500 cells were counted for each sample.
(§3) Cells were grown over a period of 6 days. Cells were harvested at various days (0, 2, 4 and 6 days), spun onto slides and stained. Apoptosis was determined by light microscopy. Percentage of apoptotic cells was calculated as the number of apoptotic cells out of the total cells counted times 100.

[12] = system: Ki-ras clone #60; experiment: Induction of apoptosis (light microscopy) in Ki-ras clone 60; format: cell-based, human; details: 120 μM sulindac sulfide
Method: as §1, §2, §3

[13] = system: Caco-2 and clone 60 cells; experiment: Clonogenic assay (colony-forming efficiency), Caco-2 and clone 60 cells; format: cell-based, human
[14] = system: Ki-ras transfected Caco-2 cells; experiment: Induction of apoptosis in Ki-ras transfected versus parental Caco-2 cells; format: cell-based, human; details: 120 μM sulfide, 600 μM sulfone
Method: as §1

[15] = human, in vivo, po; cited from earlier work
[16] = system: rat enterocytes; details: cited from earlier work
[17] = system: Ki-ras clone #66; experiment: Induction of apoptosis (light microscopy) in Ki-ras clone 66; details: 120 μM sulindac sulfide; printed 'clone 6'

In the case of `CC1(C)S[C@@H]2[C@H](NC(=O)[C@H](N)c3ccc(O)cc3)C(=O)N2[C@H]1C(=O)O` [amoxicillin], the adverse effects [1] is listed as “diarrhea and super-infections”.

For `CC(=O)Oc1ccccc1C(=O)O` [aspirin], the “inhibition of colon carcinogenesis in AOM-treated rat model” value (“inhibition of colon carcinogenesis” for short) [2] is given as “effectively inhibit colon carcinogenesis”, the “lowest dose decreasing PGF2α in colon mucosa” value ([3]; in vivo) is given as 40 mg and the “threshold dose of effect on colon mucosa” value ([3]; in vivo) is given as 81 mg and 80 mg. The “effect on colon mucosal prostaglandins” value ([3]; low doses, another group of investigators) was “no such effect on colon mucosal prostaglandins”, the “upper gastrointestinal mucosa prostaglandins” value ([3]; low doses) was “substantial reduction of prostaglandins; also recorded: substantial education of prostaglandins” and the “beneficial effect, three large cohort studies” value ([4]; in vivo) was “conflicting reports on the beneficial effect”. For the same compound, the “weekly total dose with evident effect on colon cancer incidence” value ([4]; weekly total dose) was no less than 1000 mg and the “COX / prostaglandin synthesis inhibition” value [5] was “inhibitor of cyclooxygenase”.

For `CC[C@H]1OC(=O)[C@H](C)[C@@H](O[C@H]2C[C@@](C)(OC)[C@@H](O)[C@H](C)O2)[C@H](C)[C@@H](O[C@@H]2O[C@H](C)C[C@H](N(C)C)[C@H]2O)[C@](C)(OC)C[C@@H](C)C(=O)[C@H](C)[C@@H](O)[C@]1(C)O` [clarithromycin], the diarrhea [1] is given as 10% and the pseudomembranous colitis [1] is given as 1%.

For `CC(C)Cc1ccc(C(C)C(=O)O)cc1` (centres unmarked) [ibuprofen], the “inhibition of colon carcinogenesis” value [2] is given as “effectively inhibit colon carcinogenesis”, the “chemoprevention / inhibition of tumor development in animal models” value [6] is given as “less effective than other NSAIDs” and the “PGE2 levels in flat mucosa” value [7] is given as “significant decrease”.

For `COc1ccc2c(c1)c(CC(=O)O)c(C)n2C(=O)c1ccc(Cl)cc1` [indomethacin], the “inhibition of colon carcinogenesis” value [2] is listed as “effectively inhibit colon carcinogenesis” and the “COX / prostaglandin synthesis inhibition” value [5] is listed as “prostaglandin synthase inhibitor”.

For `Cc1c(OCC(F)(F)F)ccnc1C[S+]([O-])c1nc2ccccc2[nH]1` (centres unmarked) [lansoprazole], the diarrhea [1] is given as 8%, the headache [1] is given as 5% and the nausea [1] is given as 3%.

In the case of `Cc1ncc([N+](=O)[O-])n1CCO` [metronidazole], the “disulfiram-like reaction with alcohol ingestion” value [1] is given as 20% and the rash [1] is given as 5%.

For `COc1ccc2[nH]c([S+]([O-])Cc3ncc(C)c(OC)c3C)nc2c1` (centres unmarked) [omeprazole], the dizziness [1] is listed as 2%.

In the case of `CN1C(C(=O)Nc2ccccn2)=C(O)c2ccccc2S1(=O)=O` [piroxicam, 4-Hydroxy-2-methyl-N-2-pyridyl-2H1,2-benzothiazine-3-carboxamide 1,1-dioxide], the “Ki-ras mutation / tumors harboring an activated Ki-ras” value [8] is listed as “reduced Ki-ras mutation frequencies”, the “amount of biochemically active p21 ras in existing tumors” value [8] is listed as “reduced the amount of biochemically active p21 ras in existing tumors” and the “tumors harboring Ki-ras mutations” value ([8]; reduced from 90%) is listed as 25%. For the same compound, the “inhibition of colon carcinogenesis” value [2] was “effectively inhibit colon carcinogenesis”, the “chemoprevention / inhibition of tumor development in animal models” value [6] was “the most effective chemoprevention agent in animal models” and the side effects ([9]; IIb trial / meta-analysis) was “has more side effects than other NSAIDs”. For the same compound, the half-life ([9]; human, in vivo) was “long half-life” and the “most frequently reported side effects” value ([9]; human, in vivo) was “Gastrointestinal complaints”.

With `CSc1ccc(/C=C2/C(C)=C(CC(=O)O)c3cc(F)ccc32)cc1` [sulindac sulfide] the “Ki-ras selective toxicity / Ki-ras-specific effect on growth” value ([10]; 120 μM sulindac sulfide or 600 μM sulindac sulfone) was “nor did sulindac sulfide or sulfone exert a Ki-ras-specific effect on growth”, the “number of viable cells” value ([10]; 120 μM sulindac sulfide, 10-day growth) was “remained relatively unchanged throughout the 10-day growth period” and the “time of peak apoptosis” value [11] was 8 days. For the same compound, the “time of peak apoptosis” value [12] was 4 days, the “survival normalized to like DFMO-treated controls” value ([13]; 5 mM DFMO, increasing concentrations of sulindac sulfide) was “the survival rates of the DFMO-treated cells mirrored those of the non-DFMO-treated cells” and the IC50 ([13]; Homo sapiens, Caco-2, 24 h, read-out: 50% decrease in cell number) was roughly 225 µM. The “effect of Ki-ras activation on viability / colony-forming efficiency after sulindac metabolite” value ([13]; increasing concentrations, 24 h) was “did not reveal any differences in colony-forming efficiency between Ki-ras transfectants and parental Caco-2 cells”, the “onset of apoptosis in Ki-ras transfected cells compared with parental cells” value [14] was “accelerate the onset of apoptosis; also recorded: occurred several days earlier in Ki-ras transfected cells than in parental cells” and the mean half-life [15] was 16.4 h. For the same compound, the “resistance to apoptosis on Ki-ras activation” value [16] was “confers resistance to apoptosis” and the “time of peak apoptosis” value [17] was 6 days.
